What was measured:
[1] = target: T1, 3-phosphoinositide-dependent protein kinase 1 (Homo sapiens) (UniProt O15530); conditions: at 10 µM
T1 sequence (whole entry): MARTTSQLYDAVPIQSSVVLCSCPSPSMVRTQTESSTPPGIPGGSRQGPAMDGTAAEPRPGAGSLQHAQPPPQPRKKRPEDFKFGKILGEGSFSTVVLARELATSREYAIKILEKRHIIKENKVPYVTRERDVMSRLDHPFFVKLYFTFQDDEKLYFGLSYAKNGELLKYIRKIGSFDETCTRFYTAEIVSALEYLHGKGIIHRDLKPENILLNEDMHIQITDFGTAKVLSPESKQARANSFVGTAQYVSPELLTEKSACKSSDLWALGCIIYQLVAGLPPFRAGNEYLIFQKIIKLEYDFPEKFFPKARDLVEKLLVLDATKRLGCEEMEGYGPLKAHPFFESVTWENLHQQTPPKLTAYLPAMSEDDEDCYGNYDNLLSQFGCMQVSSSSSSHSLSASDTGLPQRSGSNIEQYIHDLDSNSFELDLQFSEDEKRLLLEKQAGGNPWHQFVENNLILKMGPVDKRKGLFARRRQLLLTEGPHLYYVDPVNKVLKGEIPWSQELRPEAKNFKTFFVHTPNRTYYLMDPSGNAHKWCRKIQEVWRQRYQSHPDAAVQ

[2] = target: T2, Inhibitor of nuclear factor kappa-B kinase subunit beta (Homo sapiens) (UniProt O14920); test: Selectivity interaction (KinomeScan (DiscoverX)) EUB0000595a IKBKB; conditions: at 10 µM
T2 sequence (whole entry): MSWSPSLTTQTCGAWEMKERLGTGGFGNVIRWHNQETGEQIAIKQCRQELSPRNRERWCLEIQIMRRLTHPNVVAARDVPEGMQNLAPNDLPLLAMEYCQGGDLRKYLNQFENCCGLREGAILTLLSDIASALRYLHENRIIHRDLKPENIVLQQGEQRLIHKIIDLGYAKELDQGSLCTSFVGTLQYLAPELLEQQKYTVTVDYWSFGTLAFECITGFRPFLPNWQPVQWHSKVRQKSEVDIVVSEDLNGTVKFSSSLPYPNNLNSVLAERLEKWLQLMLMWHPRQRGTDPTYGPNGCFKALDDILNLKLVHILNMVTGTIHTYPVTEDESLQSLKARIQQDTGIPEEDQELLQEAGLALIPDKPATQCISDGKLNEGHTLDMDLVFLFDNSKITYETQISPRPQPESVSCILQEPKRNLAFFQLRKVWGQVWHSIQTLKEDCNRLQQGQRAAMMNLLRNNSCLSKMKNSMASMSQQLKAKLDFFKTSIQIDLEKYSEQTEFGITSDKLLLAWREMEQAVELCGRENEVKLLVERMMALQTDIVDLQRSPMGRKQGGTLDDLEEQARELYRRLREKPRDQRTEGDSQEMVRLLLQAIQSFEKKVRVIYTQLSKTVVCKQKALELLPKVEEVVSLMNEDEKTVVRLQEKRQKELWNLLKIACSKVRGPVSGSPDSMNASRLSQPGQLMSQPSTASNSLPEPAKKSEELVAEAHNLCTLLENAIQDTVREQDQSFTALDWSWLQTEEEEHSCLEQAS

[3] = target: T3, Ribosomal protein S6 kinase alpha-1 (Homo sapiens, UniProt Q15418); conditions: at 10 µM
T3 sequence (Q15418 whole entry): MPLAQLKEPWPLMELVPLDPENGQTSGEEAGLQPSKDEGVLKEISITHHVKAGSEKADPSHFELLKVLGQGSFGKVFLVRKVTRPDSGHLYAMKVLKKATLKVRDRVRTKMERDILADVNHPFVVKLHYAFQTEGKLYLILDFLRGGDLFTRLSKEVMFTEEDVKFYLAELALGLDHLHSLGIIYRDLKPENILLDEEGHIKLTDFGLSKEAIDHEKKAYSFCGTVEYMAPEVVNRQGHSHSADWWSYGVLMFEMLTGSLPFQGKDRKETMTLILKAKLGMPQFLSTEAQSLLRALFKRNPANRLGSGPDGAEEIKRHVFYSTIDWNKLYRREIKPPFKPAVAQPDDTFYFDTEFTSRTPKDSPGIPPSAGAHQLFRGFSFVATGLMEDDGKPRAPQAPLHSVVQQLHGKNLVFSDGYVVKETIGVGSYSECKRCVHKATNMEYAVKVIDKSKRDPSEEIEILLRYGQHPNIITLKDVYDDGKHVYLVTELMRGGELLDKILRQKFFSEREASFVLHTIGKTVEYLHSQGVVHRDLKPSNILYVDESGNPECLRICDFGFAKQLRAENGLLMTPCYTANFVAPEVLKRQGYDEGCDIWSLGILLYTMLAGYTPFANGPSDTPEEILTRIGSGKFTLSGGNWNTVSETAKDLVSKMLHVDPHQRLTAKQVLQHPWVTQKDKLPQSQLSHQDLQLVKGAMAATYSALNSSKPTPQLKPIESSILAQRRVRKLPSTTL

[4] = target: Serine/threonine-protein kinase 26 (Homo sapiens, UniProt Q9P289); test: Selectivity interaction (Upstate Kinase Profiler service (Millipore)) EUB0000056c STK26; conditions: at 1 µM
Chain of Serine/threonine-protein kinase 26 (Q9P289 2-416 limits assumed): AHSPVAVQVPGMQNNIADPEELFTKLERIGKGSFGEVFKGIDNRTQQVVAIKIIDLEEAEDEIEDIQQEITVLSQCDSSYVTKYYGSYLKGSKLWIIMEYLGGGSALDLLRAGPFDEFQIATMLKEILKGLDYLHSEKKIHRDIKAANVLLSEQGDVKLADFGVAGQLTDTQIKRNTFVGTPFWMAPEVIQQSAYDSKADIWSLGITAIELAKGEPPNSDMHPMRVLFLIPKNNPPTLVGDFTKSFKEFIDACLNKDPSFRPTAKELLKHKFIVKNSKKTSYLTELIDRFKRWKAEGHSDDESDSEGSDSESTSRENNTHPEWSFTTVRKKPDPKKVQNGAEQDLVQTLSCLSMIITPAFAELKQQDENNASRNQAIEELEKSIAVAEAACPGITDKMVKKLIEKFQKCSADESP

[5] = target: Serine/threonine-protein kinase 38-like (Homo sapiens) (UniProt Q9Y2H1); test: Selectivity interaction (ActivX KiNativ screen (ex vivo kinase selectivity in human PBMCs)) EUB0001619a STK38L; assay type: cell-based; conditions: PBMC, at 1 µM
[6] = target: Cyclin-dependent kinase 13 (Homo sapiens, UniProt Q14004); test: Selectivity interaction (KinomeScan (DiscoverX)) EUB0001619a CDK13; conditions: at 1 µM
[7] = target: T3, Ribosomal protein S6 kinase alpha-1; test: Selectivity interaction (ActivX KiNativ screen (ex vivo kinase selectivity in human PBMCs)) EUB0001619a RPS6KA1; assay type: cell-based; conditions: PBMC, at 1 µM
[8] = target: Glycogen synthase kinase-3 beta (Homo sapiens, UniProt P49841); test: Selectivity interaction (KinomeScan (DiscoverX)) EUB0001619a GSK3B; conditions: at 1 µM
[9] = target: Calcium/calmodulin-dependent protein kinase type II subunit beta (Homo sapiens) (UniProt Q13554); test: Selectivity interaction (ActivX KiNativ screen (kinase selectivity in THP-1 cell lysates)) EUB0000639a CAMK2B; assay type: subcellular; conditions: lysate, at 0.04 µM
[10] = target: Wee1-like protein kinase (Homo sapiens) (UniProt P30291); test: Selectivity interaction (Kinase panel (Invitrogen)) EUB0000639a WEE1; conditions: at 200 nM
[11] = target: Tyrosine-protein kinase ABL2 (Homo sapiens, UniProt P42684); test: Selectivity interaction (KinomeScan (DiscoverX)) EUB0000655a ABL2; conditions: at 10 µM
[12] = system: Epidermal growth factor receptor (Homo sapiens), P00533 [L858R]; test: (§1) Selectivity interaction (Ambit KINOMEscan and KiNATiv profiling in Jurkat cells) EUB0000090b EGFR; assay type: cell-based; conditions: at 1 µM
Chain of Epidermal growth factor receptor (Homo sapiens), P00533 [L858R] (P00533 whole entry L858R): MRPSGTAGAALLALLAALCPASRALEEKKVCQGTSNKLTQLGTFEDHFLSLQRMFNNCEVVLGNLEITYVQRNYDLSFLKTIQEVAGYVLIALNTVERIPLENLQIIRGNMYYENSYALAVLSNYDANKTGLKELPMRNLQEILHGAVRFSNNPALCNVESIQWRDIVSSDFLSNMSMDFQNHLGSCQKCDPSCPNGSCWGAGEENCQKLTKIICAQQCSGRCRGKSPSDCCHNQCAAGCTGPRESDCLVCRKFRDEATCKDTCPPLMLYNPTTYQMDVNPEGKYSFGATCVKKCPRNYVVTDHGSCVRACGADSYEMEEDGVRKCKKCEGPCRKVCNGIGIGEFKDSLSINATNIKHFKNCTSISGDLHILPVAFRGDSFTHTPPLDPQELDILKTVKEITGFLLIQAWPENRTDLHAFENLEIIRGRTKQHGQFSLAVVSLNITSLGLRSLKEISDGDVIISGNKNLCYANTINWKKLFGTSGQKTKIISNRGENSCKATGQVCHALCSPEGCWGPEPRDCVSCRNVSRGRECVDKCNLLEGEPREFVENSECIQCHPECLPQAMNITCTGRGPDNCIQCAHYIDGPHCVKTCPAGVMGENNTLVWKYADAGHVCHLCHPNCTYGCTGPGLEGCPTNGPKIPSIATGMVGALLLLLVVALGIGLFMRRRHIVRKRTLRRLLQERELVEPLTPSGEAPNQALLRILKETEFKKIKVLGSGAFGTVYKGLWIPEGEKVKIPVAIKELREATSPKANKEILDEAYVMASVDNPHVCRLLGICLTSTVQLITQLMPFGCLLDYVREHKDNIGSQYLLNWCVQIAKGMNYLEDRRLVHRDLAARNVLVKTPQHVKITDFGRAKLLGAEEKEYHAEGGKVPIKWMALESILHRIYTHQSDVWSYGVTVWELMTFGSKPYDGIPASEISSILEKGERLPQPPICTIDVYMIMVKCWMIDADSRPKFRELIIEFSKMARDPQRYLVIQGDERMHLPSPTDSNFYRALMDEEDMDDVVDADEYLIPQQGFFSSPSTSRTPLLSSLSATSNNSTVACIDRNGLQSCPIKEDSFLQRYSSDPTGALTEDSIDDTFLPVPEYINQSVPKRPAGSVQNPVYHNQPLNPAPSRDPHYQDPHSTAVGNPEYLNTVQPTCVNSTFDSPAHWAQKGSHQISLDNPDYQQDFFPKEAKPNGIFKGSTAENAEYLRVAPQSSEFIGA

[13] = target: Epidermal growth factor receptor (Homo sapiens, UniProt P00533); test: as §1; assay type: cell-based; conditions: at 1 µM
[14] = system: Epidermal growth factor receptor (Homo sapiens), P00533 [T790M]; test: as §1; assay type: cell-based; conditions: at 1 µM
Chain of Epidermal growth factor receptor (Homo sapiens), P00533 [T790M] (P00533 whole entry T790M): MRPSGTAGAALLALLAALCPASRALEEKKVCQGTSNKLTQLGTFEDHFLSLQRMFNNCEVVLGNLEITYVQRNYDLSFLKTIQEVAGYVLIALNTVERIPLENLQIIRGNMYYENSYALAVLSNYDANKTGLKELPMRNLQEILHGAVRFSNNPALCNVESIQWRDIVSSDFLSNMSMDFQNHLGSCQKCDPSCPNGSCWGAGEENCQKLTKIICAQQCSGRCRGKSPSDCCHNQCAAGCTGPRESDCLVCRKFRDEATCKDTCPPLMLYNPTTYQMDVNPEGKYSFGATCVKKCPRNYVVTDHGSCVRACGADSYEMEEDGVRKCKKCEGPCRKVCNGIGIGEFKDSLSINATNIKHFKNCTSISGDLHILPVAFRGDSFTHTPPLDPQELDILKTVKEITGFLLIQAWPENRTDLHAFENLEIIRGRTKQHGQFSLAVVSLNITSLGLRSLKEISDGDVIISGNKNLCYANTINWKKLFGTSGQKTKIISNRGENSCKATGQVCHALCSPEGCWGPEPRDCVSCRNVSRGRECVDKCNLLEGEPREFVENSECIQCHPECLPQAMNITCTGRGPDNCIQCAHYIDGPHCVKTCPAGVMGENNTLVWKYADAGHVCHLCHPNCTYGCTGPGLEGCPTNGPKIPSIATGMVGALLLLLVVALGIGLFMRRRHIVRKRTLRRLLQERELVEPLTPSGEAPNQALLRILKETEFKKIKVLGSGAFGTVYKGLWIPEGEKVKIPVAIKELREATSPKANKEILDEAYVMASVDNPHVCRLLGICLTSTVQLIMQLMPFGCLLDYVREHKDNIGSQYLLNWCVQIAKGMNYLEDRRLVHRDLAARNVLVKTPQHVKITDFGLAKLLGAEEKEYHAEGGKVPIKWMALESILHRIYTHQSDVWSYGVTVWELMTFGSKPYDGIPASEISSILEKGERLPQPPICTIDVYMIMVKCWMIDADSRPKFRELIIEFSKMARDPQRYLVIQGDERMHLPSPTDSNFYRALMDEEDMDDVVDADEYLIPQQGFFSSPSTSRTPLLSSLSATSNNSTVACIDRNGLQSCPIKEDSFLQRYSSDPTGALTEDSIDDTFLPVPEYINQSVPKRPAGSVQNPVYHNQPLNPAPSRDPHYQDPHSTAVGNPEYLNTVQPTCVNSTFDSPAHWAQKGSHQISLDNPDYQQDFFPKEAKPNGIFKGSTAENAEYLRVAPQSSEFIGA

[15] = system: Epidermal growth factor receptor (Homo sapiens), P00533 [G719C]; test: as §1; assay type: cell-based; conditions: at 1 µM
[16] = system: Epidermal growth factor receptor (Homo sapiens), P00533 [L858R,T790M]; test: as §1; assay type: cell-based; conditions: at 1 µM
[17] = system: Epidermal growth factor receptor (Homo sapiens), P00533 [L861Q]; test: as §1; assay type: cell-based; conditions: at 1 µM
Chain of Epidermal growth factor receptor (Homo sapiens), P00533 [L861Q] (P00533 whole entry L861Q): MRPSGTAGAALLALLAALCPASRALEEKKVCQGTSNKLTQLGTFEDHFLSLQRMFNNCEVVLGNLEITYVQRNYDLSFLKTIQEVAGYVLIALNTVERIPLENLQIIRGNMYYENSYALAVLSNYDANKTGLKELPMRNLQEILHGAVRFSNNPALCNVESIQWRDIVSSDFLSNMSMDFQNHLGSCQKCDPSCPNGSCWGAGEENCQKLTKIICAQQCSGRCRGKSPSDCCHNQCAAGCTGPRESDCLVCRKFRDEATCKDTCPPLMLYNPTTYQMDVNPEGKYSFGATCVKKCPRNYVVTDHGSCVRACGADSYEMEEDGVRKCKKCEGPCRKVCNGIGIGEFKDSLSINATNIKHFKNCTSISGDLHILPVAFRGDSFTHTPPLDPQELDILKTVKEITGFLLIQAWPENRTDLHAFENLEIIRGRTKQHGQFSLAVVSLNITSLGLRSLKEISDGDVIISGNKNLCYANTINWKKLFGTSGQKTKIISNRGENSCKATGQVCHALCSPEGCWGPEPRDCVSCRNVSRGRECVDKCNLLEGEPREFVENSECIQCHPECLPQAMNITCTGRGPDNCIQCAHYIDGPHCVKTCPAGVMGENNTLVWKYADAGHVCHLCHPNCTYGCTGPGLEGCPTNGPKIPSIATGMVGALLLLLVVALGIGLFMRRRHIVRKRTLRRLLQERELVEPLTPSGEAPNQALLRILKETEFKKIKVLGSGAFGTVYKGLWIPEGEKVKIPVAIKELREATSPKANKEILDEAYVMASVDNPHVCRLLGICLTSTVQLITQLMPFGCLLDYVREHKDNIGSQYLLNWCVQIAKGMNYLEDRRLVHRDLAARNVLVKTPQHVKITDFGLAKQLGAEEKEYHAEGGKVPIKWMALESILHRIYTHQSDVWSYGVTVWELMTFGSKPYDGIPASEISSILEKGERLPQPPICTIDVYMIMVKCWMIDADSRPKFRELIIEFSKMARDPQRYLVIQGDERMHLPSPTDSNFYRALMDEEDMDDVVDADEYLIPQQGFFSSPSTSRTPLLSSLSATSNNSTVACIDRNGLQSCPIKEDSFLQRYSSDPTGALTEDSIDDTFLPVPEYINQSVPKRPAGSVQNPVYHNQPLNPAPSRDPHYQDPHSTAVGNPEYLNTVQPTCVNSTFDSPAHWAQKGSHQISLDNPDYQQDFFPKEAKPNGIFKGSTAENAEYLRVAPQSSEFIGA

[18] = system: Epidermal growth factor receptor (Homo sapiens), P00533 [G719S]; test: as §1; assay type: cell-based; conditions: at 1 µM
[19] = system: Epidermal growth factor receptor (Homo sapiens), P00533 [UNDEFINED MUTATION]; test: as §1; assay type: cell-based; conditions: at 1 µM

## COCC(=O)NC/C=C/c1ccc2ncnc(Nc3ccc(Oc4ccc(C)nc4)c(C)c3)c2c1 [CP-724714]
[1]
  % of control: 100%
[2]
  % of control: 100%

## Cc1cc([C@@H](C)Nc2ccccc2C(=O)O)c2nc(N3CCOCC3)cc(=O)n2c1 [AZD-6482]
[3]
  % of control: 84%

## Cc1ccc(-c2ccc3c(ccc4sc5c(c43)NC[C@@H](C)NC5=O)n2)cn1
[4]
  % of inhibition: 15%

## N#Cc1cccc(-c2c[nH]c3ncnc(N4CCOCC4)c23)c1
[5]
  % of inhibition: 3%
[6]
  % of control: 100%
[7]
  % of inhibition: -1%
[8]
  % of control: 94%

## CC[C@@H]1[C@H](F)C(=O)N[C@@H]1COc1nccc2cc(C(N)=O)c(OC)cc12 [ZIMLOVISERTIB]
[9]
  % of inhibition: 12.8%
[10]
  % of inhibition: -0.606%

## CN(C)CCOc1ccc(-c2nc(-c3ccncc3)c(-c3ccc4c(c3)CC/C4=N\O)[nH]2)cc1
[11]
  % of control: 55%

## CN(C)C/C=C/C(=O)Nc1ccc(C(=O)N2CCCC(Nc3ncc(Cl)c(-c4c[nH]c5ccccc45)n3)C2)cc1 (centres undefined)
[12]
  % of control: 100%
[13]
  % of control: 99%
[14]
  % of control: 99%
[15]
  % of control: 88%
[16]
  % of control: 90%
[17]
  % of control: 71%
[18]
  % of control: 91%
[19]
  % of control: 70%

Reference: ChEMBL document CHEMBL5465560, “Selectivity Literature for EUbOPEN Chemogenomic Library” (2024)
